Measurements as given in patent US10239829B2, “Antagonists of the glucagon receptor” (Metabasis Therapeutics, Inc., priority 2007, dated 2019).

Tests used:
db/db mice = experiment: Glucose lowering in db/db mice; assay type: in vivo, mouse; settings: freely-feeding; for inhibition in vivo at 30 mg/kg / inhibition in vivo at 100 mg/kg: Mus musculus, oral gavage, 100% = normalization to lean db/+ mice; for Glucose lowering: vs vehicle-treated db/db mice
Description: Purpose: To assess the effects of compounds of the invention on blood glucose levels in the db/db mouse, an animal model of type 2 diabetes.
Methods: Compounds were dissolved in polyethylene glycol-400 and administered by oral gavage to db/db mice in the freely-feeding state at doses of 30 and/or 100 mg/kg. Blood glucose levels were assessed in blood samples obtained by tail bleed at baseline (prior to drug administration) and at regular time intervals over 24 hours using a portable glucometer such as the OneTouch or HemoCue meters. The magnitude of blood glucose lowering elicited by the compounds of the invention was determined by comparison to those in db/db mice administered only the vehicle. The percentage glucose lowering was calculated by factoring in the blood glucose levels of vehicle-treated lean db/+(heterozygote) mice, with 100% representing the normalization of blood glucose levels from the hyperglycemic state (vehicle-treated db/db mice) to the normoglycemic state (vehicle-treated db/+ mice).

[1] = test system: glucagon-challenged Beagle dogs; experiment: Glucose lowering in glucagon-challenged Beagle dogs; assay type: in vivo, dog; settings: Beagle dogs (n=3), oral gavage 38 mg/kg in PEG-400, glucagon 20 μg s.c. after 1.5 hours
Description: Purpose: To assess the effects of compounds of the invention on blood glucose levels in glucagon-challenged Beagle dogs.
Methods: Beagle dogs (n=3) were treated with vehicle (polyethylenelglycol-400) by oral gavage. After 1.5 hours, glucagon (20 μg) was administered subcutaneously. Blood glucose levels were measured prior to glucagon administration and at 10-minute intervals thereafter for up to an hour. Blood samples for these determinations were obtained from a superficial ear vein and were measured using a OneTouch glucometer. After a 1-week washout, the animals were treated by oral gavage with the compound of Example 2.009 at a dose of 38 mg/kg (polyethylenelglycol-400 formulation). The glucagon challenge and blood sampling were then performed as before.

[2] = oral gavage in PEG-400, dose 30 mg/Kg
[3] = oral gavage in PEG-400, dose 100 mg/Kg

Structure (SMILES)	inhibition in vivo at 30 mg/kg (db/db mice) [%]	Glucose lowering (db/db mice; [2]) [mg/dL]	inhibition in vivo at 100 mg/kg (db/db mice) [%]	Glucose lowering (db/db mice; [3]) [mg/dL]	attenuation of the glucagon-induced glucose excursion [1]
CC(C)(C)/C=C/c1ccc(C(Cc2ccc(C(=O)NCCS(=O)(=O)[O-])cc2)C(=O)Nc2ccc(-c3cc4ccccc4o3)cc2)cc1.[Na+] (centres unmarked) [Example 1.052]	61	147			
CC(C)(C)/C=C/c1ccc(C(Cc2ccc(C(=O)NCCS(=O)(=O)[O-])cc2)C(=O)Nc2ccc(-c3ccc(Cl)cc3Cl)cc2)cc1.[Na+] (centres unmarked) [Example 1.133]	57	157			
CC(C)(C)/C=C/c1ccc(C(Cc2ccc(C(=O)NCCS(=O)(=O)[O-])cc2)C(=O)Nc2ccc(-c3ccc(C(F)(F)F)cc3Cl)cc2)cc1.[Na+] (centres unmarked) [Example 1.135]			41	131	
CC(C)(C)COc1ccc(C(Cc2ccc(C(=O)NCCS(=O)(=O)O)cc2)C(=O)Nc2ccc(-c3ccc(Cl)cc3Cl)cc2)cc1.[Na+] (centres unmarked) [Example 1.136]	16	47			
CC(c1ccc(C(=O)NCCS(=O)(=O)[O-])cc1)C(C(=O)Nc1ccc(-c2ccc(Cl)cc2Cl)cc1)c1ccc(/C=C/C(C)(C)C)cc1.[Na+] (centres unmarked) [Example 1.137]	53	159			
CC(C)(C)C1CCC(C(Cc2ccc(C(=O)NCCS(=O)(=O)[O-])cc2)C(=O)Nc2ccc(-c3ccc(Cl)cc3Cl)cc2)CC1.[Na+] (centres unmarked) [Example 1.138]	6	19			
O=C(NCCS(=O)(=O)O)c1ccc(CC(C(=O)Nc2ccc(-c3cc4ccccc4o3)cc2Cl)c2ccc(OC(F)(F)F)cc2)cc1 (centres unmarked) [Example 1.155]	49	108			
Cc1cc(C(F)(F)F)ccc1-c1ccc(NC(=O)C(Cc2ccc(C(=O)NCCS(=O)(=O)O)cc2)c2ccc(/C=C/C(C)(C)C)cc2)cc1Cl (centres unmarked) [Example 1.173]	50	172			
Cc1cc(NC(=O)C(Cc2ccc(C(=O)NCCS(=O)(=O)O)cc2)c2ccc(/C=C/C(C)(C)C)cc2)ccc1-c1ccc(C(F)(F)F)cc1Cl (centres unmarked) [Example 1.179]	34	102			
Cc1cc(Cl)ccc1-c1ccc(NC(=O)C(Cc2ccc(C(=O)NCCS(=O)(=O)O)cc2)c2ccc(C3=CCC(C(C)(C)C)CC3)cc2)cc1 (centres unmarked) [Example 1.269]	42	124			
CC(C)(C)C1CC=C(c2ccc(C(Cc3ccc(C(=O)NCCS(=O)(=O)O)cc3)C(=O)Nc3ccc(-c4ccc(C(F)(F)F)cc4Cl)cc3)cc2)CC1 (centres unmarked) [Example 1.270]	24	63			
Cc1cc(NC(=O)C(Cc2ccc(C(=O)NCCS(=O)(=O)O)cc2)c2ccc(OCC(C)(C)C)cc2)ccc1-c1ccc(C(F)(F)F)cc1C (centres unmarked) [Example 1.311]	36	109			
CC(C)(C)COc1ccc(C(Cc2ccc(C(=O)NCCS(=O)(=O)O)cc2)C(=O)Nc2ccc(-c3ccc(C(F)(F)F)cc3Cl)cc2)cc1 (centres unmarked) [Example 1.314]	40	95			
CCC(c1ccc(C(=O)NCCS(=O)(=O)O)cc1)C(C(=O)Nc1ccc(-c2ccc(Cl)cc2Cl)cc1)c1ccc(/C=C/C(C)(C)C)cc1 (centres unmarked) [Example 1.315]	57	172			
Cc1cc(C(F)(F)F)ccc1-c1ccc(NC(=O)C(Cc2ccc(C(=O)NCCS(=O)(=O)O)cc2)c2ccc(/C=C/C(C)(C)C)cc2)cc1 (centres unmarked) [Example 1.320]	39	121			
CC(C)(C)/C=C/c1ccc(C(Cc2ccc(C(=O)NCCS(=O)(=O)O)cc2)C(=O)Nc2ccc(C3=Cc4ccccc4C3)cc2)cc1 (centres unmarked) [Example 1.321]	68	161			
Cc1cc(Cl)ccc1-c1ccc(NC(=O)C(Cc2ccc(C(=O)NCCS(=O)(=O)O)cc2)c2ccc(/C=C/C(C)(C)C)cc2)cc1Cl (centres unmarked) [Example 1.359]			48	150	
CC(C)(C)c1ccc(C(Cc2ccc(C(=O)NCCS(=O)(=O)[O-])cc2)c2cc(-c3cccc(-c4ccc(Cl)cc4)c3)on2)cc1.[Na+] (centres unmarked) [Example 2.009]					approximately 40%
